# Earlier results as cited in patent publication US20030003095A1, “Activated carbon for preventing pregnancy and sexually transmitted disease” (The Procter & Gamble Company, priority 2002, published 2003).
# Conditions: stated in words, no test described
row,water solubility,Molecule
1,water-soluble,N=C(NCCCCCCNC(=N)NC(=N)Nc1ccc(Cl)cc1)NC(=N)Nc1ccc(Cl)cc1.O=C(O)[C@H](O)[C@@H](O)[C@H](O)[C@H](O)CO.O=C(O)[C@H](O)[C@@H](O)[C@H](O)[C@H](O)CO [chlorhexidene digluconate]
2,water insoluble,Oc1cc(Cl)ccc1Oc1ccc(Cl)cc1Cl [triclosan]

row,Molecule,water solubility
1,nonoxynol-9,slightly water soluble
